Laboratory results published in US4563477A, “Process for the preparation of alpha-(N-pyrrolyl)-derivative acids, the salts and esters thereof; alpha-(N-pyrrolyl)-phenylacetic acids, the esters thereof, pharmaceutical compositions containing them and therapeutical applications thereof” (Antibioticos, S.A., priority 1982, dated 1986).

Legend:
[1] = test system: ADP induced platelet aggregation; assay: "Ex vivo" platelet anti-aggregation activity in rats (ADP induced platelet aggregation, Born aggregometer); parameters: species or system Wistar rats, ITA 177 SPF; conditions: 100 mg/kg p.o., n = 5, blood drawn 5 hours after administration; for Platelet aggregation %: control 86.4 ± 2.15, Duncan Kramer test p < 0.05; for Platelet aggregation, % inhibition: relative to control
Method: Acetylsalicyclic acid at a dose level of 100 mg/kg p.o. was used as standard.
The products to be tested were administered at the maximum dose of 200 mg/kg, p.o.
Both the standard and the products were administered dissolved or suspended in a 10 ml/kg Tween solution.
The animals were fasted during the test and for 17 hours prior thereto, but had water "ad libitum".
The % aggregation was calculated measuring the difference in mm in the recorder between the initial aggregation stage and the height of the specimen curve 6 minutes after the onset of aggregation.
This figure, therefore, is calculated as a percentage, taking as 100% the figure in mm of the difference between the platelet rich plasma (prp) and the platelet poor plasma (ppp) obtained in balancing the apparatus for the specimen under examination.
"Ex vivo" platelet anti-aggregation activity in rats

[2] = test system: 0.5% acetic acid induced contorsions in NMRI mice; assay: Peripheral analgesic activity: 0.5% acetic acid induced contorsions in NMRI mice; assay type: in vivo; conditions: male NMRI mice, n = 10, 100 mg/kg p.o.; for % inhibition relative to control (contorsions) / No mice with contorsions: 0.5% acetic acid i.p.; for No contorsions (X ± s.e.): 0.5% acetic acid i.p. after 30 minutes, observed half an hour, mean ± s.e., control 27.1 ± 4.3, Duncan Kramer test p < 0.05; for No mice with contorsions: control 10/10
Method: The experimental method consists of injecting an irritant, such as acetic acid, into the […] peritoneum and provoking obviously appreciable painful contorsions such as stretching of the rear paws and twisting of the dorso-abdominal muscles.
The material used consisted of lots of NMRI mice bred in our SPF breeding centre under constant temperature and humidity conditions of 23°±0.5° C. and 70±5%.
Standard: acetylsalicylic acid
Vehicle: propylene glycol/water--40/60 v.
Transparent plastic cages.
With this material the mice were randomly distributed into groups of 10 animals. The test order and the treatment to be given to each group was also randomised. […]
The control lot received the vehicle. As standard, acetylsalicylic acid at a dose level of 100 mg/kg, suspended in the same vehicle and administered p.o., was used.
After 30 minutes, 0.25 ml per 20 g body weight of a 0.5% acetic acid solution was administered intraperitoneally.
The number of painful contorsions were counted and, for evaluating the results, the means of the number of stretches of each lot were calculated and were expressed as inhibition percentages relative to the control, as per the following equation: [formula] where c is the mean of the number of stretches of the control group and b is the mean of the number of stretches of the treated group.
The statistical significance between the lots may be ascertained with the Duncan-Kramer test, with p<0.05.
0.5% acetic acid induced contorsions in NMRI mice male (n = 10)

CCCCC1C(=O)N(c2ccccc2)N(c2ccccc2)C1=O [Phenylbutazone, reference compound]
Platelet aggregation % [1]: 58.2 ± 7.35% | Platelet aggregation, % inhibition [1]: 32.6%

CCOC(=O)C(c1ccccc1)n1cccc1 (racemic) [Ethyl DL(±)-alpha-(N-pyrrolyl)-phenylacetate]
Platelet aggregation % [1]: 42.0 ± 2.58% | Platelet aggregation, % inhibition [1]: 51.4%

CC(=O)Oc1ccccc1C(=O)O [Acetylsalicylic acid, reference compound]
Platelet aggregation % [1]: 20.1 ± 1.49% | Platelet aggregation, % inhibition [1]: 76.7% | % inhibition relative to control (contorsions) [2]: 37.27% | No contorsions (X ± s.e.) [2]: 17 ± 3.5 | No mice with contorsions [2]: 10/10

O=C(O)C(c1ccccc1)n1cccc1 (racemic) [DL(±)-alpha-(N-pyrrolyl)-phenylacetic acid]
Platelet aggregation % [1]: 25.3 ± 9.28% | Platelet aggregation, % inhibition [1]: 70.7% | % inhibition relative to control (contorsions) [2]: 79.7% | No contorsions (X ± s.e.) [2]: 5.5 ± 1.8 | No mice with contorsions [2]: 7/10

O=C(O)[C@@H](c1ccccc1)n1cccc1 [D(+)-alpha-(N-pyrrolyl)-phenylacetic acid]
% inhibition relative to control (contorsions) [2]: 70.9% | No contorsions (X ± s.e.) [2]: 7.9 ± 2.6 | No mice with contorsions [2]: 8/10

O=C(O)C(c1ccc(O)cc1)n1cccc1 (racemic) [Dibenzylammonium DL(±)-alpha-(N-pyrrolyl)-p-hydroxy-phenylacetate]
% inhibition relative to control (contorsions) [2]: 72.3% | No contorsions (X ± s.e.) [2]: 7.5 ± 2.2 | No mice with contorsions [2]: 9/10

O=C(O)Cn1cccc1 [Alpha-(N-pyrrolyl)-acetic acid]
Platelet aggregation % [1]: 63.1 ± 3.32% | Platelet aggregation, % inhibition [1]: 27.0%

O=C(O)[C@H](c1ccccc1)n1cccc1 [L(-)-alpha-(N-pyrrolyl)-phenylacetic acid]
% inhibition relative to control (contorsions) [2]: 76.2% | No contorsions (X ± s.e.) [2]: 6.4 ± 1.9 | No mice with contorsions [2]: 8/10
